Data taken from US20240327353A1.
Like-named read-outs stand apart in the source and are kept apart here.

What was measured:
5-HT2AR = target: T1, 5-HT2AR (Homo sapiens, UniProt P28223); assay: Radioligand binding (competitive displacement and saturation), cell membranes; conditions: displacement of [^3H]ketanserin; mean of n independent experiments, ± SD where n ≥ 5
T1 construct: host or cells: HEK293, transient
Method: (§1) Transfections were performed for 48 hours.

H1R = target: T2, H1R (Homo sapiens, UniProt P35367); assay: as above
T2 construct: host or cells: CHO, transient
T2 sequence (P35367 whole entry): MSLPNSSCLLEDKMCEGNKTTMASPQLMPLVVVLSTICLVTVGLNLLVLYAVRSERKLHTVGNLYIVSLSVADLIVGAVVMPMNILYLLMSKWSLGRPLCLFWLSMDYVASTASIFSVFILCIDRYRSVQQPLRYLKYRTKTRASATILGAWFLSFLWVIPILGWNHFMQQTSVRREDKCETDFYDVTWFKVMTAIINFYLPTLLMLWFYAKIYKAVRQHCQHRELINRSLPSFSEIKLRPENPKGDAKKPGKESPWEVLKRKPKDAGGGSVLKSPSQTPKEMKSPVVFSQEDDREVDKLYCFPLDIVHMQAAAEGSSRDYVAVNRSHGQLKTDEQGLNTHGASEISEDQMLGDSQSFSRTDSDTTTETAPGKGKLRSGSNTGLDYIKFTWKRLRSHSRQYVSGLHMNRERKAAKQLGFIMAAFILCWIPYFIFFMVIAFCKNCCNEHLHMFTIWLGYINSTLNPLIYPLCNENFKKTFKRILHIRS
Method: as §1

human wild-type 5-HT2A = human wild-type 5-HT2A (Homo sapiens, UniProt P28223); assay: IP-One HTRF IP1 accumulation assay; conditions: antagonism of IP1 accumulation in the presence of 1 μM 5-HT; ± SD
Sequence of human wild-type 5-HT2A (P28223 whole entry): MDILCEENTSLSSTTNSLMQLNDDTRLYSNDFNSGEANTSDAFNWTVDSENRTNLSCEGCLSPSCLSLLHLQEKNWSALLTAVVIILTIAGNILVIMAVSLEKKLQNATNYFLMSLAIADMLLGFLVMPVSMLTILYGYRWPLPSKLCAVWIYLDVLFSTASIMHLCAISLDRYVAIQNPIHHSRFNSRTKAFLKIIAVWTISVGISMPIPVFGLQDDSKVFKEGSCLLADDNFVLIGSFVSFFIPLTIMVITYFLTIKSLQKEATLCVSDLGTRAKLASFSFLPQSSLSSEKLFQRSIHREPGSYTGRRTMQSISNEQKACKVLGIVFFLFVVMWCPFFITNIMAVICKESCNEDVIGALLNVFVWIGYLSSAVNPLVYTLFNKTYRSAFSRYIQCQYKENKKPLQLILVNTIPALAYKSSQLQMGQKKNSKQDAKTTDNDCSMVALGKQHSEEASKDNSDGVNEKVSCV

α1B-adrenergic receptor [1] = target: T3, α1B-adrenergic receptor (Homo sapiens, UniProt P35368)
T3 sequence (P35368 1-520): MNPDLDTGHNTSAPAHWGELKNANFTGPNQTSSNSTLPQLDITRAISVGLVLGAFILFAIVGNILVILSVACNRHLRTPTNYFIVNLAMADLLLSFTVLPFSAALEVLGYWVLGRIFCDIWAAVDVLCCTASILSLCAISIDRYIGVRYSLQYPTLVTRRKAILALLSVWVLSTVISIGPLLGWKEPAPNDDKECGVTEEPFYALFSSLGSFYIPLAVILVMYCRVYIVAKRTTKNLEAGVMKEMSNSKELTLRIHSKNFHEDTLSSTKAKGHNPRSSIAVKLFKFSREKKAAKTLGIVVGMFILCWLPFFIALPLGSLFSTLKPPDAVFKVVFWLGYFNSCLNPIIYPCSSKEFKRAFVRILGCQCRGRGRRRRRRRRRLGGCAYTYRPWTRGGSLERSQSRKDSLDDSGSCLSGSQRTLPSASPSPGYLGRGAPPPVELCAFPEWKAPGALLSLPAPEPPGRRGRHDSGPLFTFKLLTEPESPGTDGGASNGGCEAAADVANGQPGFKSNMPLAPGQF

C322K^6.34 5-HT2AR = target: T4, C322K^6.34 5-HT2AR (Homo sapiens, UniProt P28223, C322K); assay: IP1 accumulation assay, inverse agonism at constitutively activated receptor; assay type: cell-based
T4 construct: expressed in transfected cells; host or cells: clonal cells
T4 sequence (P28223 whole entry C322K): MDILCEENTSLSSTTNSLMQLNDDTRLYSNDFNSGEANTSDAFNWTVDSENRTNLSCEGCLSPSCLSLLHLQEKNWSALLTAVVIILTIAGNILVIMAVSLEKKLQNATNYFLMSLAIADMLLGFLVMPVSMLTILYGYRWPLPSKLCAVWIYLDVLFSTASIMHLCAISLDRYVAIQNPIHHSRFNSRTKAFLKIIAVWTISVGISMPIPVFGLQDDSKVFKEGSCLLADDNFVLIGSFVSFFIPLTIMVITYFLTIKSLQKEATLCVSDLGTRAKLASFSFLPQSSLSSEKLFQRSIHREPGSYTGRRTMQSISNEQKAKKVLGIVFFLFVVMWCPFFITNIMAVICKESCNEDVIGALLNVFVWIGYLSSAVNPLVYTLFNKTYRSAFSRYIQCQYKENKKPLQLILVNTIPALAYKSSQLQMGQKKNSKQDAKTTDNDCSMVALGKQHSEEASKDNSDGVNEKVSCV
Method: as §1

G238S^5.42 5-HT2AR = target: T5, G238S^5.42 5-HT2AR (Homo sapiens, UniProt P28223, G238S); assay: IP1 accumulation assay at point-mutated 5-HT2AR; assay type: cell-based; conditions: in the presence of 1 μM 5-HT; ± SD
T5 construct: expressed in transfected cells; host or cells: clonal cells
T5 sequence (P28223 whole entry G238S): as the sequence (P28223 whole entry C322K) above, with G238S, K322C counted along it
Method: as §1

I210V^4.60 5-HT2AR = target: T6, I210V^4.60 5-HT2AR (Homo sapiens, UniProt P28223, I210V); assay: IP1 accumulation assay at point-mutated 5-HT2AR; assay type: cell-based; conditions: in the presence of 1 μM 5-HT; ± SD
T6 construct: expressed in transfected cells; host or cells: clonal cells
T6 sequence (P28223 whole entry I210V): as the sequence (P28223 whole entry C322K) above, with I210V, K322C counted along it
Method: as §1

S242A^5.46 5-HT2AR = target: T7, S242A^5.46 5-HT2AR (Homo sapiens, UniProt P28223, S242A); assay: IP1 accumulation assay at point-mutated 5-HT2AR; assay type: cell-based; conditions: in the presence of 1 μM 5-HT; ± SD
T7 construct: expressed in transfected cells; host or cells: clonal cells
T7 sequence (P28223 whole entry S242A): as the sequence (P28223 whole entry C322K) above, with S242A, K322C counted along it
Method: as §1

V235M^5.39 5-HT2AR = target: T8, V235M^5.39 5-HT2AR (Homo sapiens, UniProt P28223, V235M); assay: IP1 accumulation assay at point-mutated 5-HT2AR; assay type: cell-based; conditions: in the presence of 1 μM 5-HT; ± SD
T8 construct: expressed in transfected cells; host or cells: clonal cells
T8 sequence (P28223 whole entry V235M): as the sequence (P28223 whole entry C322K) above, with V235M, K322C counted along it
Method: as §1

F213K^4.63 5-HT2AR = target: T9, F213K^4.63 5-HT2AR (Homo sapiens, UniProt P28223, F213K); assay: IP1 accumulation assay at point-mutated 5-HT2AR; assay type: cell-based; conditions: in the presence of 1 μM 5-HT; ± SD
T9 construct: expressed in transfected cells; host or cells: clonal cells
T9 sequence (P28223 whole entry F213K): as the sequence (P28223 whole entry C322K) above, with F213K, K322C counted along it
Method: as §1

male C57BL/6J mice [2] = assay: (±)-DOI-elicited head twitch response; conditions: for head twitch response elicited by (±)-DOI: 1 mg*kg^−1 (±)-DOI s.c., pretreatment s.c., every dose tested (PIMA, (2S,4R)-2k 0.3 or 3 mg kg^−1, (2R,4R)-3h 3.0 or 5.6 mg kg^−1)
α1A-adrenergic receptor [3] = target: T10, α1A-adrenergic receptor (Homo sapiens, UniProt P35348)
T10 sequence (P35348 1-466): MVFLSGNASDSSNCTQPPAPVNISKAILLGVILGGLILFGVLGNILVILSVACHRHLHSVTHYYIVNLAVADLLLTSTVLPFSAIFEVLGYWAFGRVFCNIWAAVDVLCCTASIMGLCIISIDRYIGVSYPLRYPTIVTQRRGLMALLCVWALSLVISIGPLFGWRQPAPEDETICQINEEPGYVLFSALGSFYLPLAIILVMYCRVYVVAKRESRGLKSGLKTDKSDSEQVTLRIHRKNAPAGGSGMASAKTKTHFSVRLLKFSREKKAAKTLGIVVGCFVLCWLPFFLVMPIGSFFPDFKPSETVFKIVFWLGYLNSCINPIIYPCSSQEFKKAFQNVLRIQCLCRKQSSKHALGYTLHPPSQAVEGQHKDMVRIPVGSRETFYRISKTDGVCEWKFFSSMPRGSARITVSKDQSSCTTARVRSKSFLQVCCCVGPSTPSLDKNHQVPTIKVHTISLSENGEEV

human wild-type 5-HT2C = human wild-type 5-HT2C (Homo sapiens, UniProt P28335); assay: IP-One HTRF IP1 accumulation assay
Sequence of human wild-type 5-HT2C (P28335 33-458): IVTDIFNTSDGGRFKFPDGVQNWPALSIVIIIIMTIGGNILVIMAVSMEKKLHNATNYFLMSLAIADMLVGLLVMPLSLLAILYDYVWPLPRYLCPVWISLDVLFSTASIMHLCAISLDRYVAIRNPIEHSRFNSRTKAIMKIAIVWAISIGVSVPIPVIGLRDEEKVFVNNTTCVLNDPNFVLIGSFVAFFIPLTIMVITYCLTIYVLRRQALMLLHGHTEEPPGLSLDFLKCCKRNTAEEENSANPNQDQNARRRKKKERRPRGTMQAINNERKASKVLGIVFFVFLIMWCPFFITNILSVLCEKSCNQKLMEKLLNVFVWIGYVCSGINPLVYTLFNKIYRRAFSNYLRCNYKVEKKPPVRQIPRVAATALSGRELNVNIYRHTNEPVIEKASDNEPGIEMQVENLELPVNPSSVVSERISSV

5-HT1A = target: T11, 5-HT1A (Homo sapiens, UniProt P08908); assay: Radioligand binding, cell membranes; conditions: for pKi 5-HT1A: [^3H]5-CT, mean of n independent experiments
T11 construct: host or cells: HEK293T, transient
T11 sequence (P08908 1-422): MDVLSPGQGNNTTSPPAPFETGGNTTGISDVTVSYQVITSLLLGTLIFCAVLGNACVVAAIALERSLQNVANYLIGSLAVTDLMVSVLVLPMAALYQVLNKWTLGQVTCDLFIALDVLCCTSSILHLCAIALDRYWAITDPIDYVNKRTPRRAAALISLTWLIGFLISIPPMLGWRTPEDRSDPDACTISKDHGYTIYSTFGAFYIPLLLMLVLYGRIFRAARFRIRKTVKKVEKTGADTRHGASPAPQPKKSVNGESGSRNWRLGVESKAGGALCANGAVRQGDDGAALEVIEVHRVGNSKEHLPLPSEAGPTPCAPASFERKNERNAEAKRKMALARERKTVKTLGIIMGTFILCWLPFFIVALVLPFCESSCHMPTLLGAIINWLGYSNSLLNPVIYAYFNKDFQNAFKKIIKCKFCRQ
Method: as §1

5-HT7 = 5-HT7 (Homo sapiens, UniProt P34969); assay: Radioligand binding, cell membranes; conditions: for pKi 5-HT7: [^3H]5-CT, mean of n independent experiments
Sequence of 5-HT7 (P34969 1-445 isoform P34969-2): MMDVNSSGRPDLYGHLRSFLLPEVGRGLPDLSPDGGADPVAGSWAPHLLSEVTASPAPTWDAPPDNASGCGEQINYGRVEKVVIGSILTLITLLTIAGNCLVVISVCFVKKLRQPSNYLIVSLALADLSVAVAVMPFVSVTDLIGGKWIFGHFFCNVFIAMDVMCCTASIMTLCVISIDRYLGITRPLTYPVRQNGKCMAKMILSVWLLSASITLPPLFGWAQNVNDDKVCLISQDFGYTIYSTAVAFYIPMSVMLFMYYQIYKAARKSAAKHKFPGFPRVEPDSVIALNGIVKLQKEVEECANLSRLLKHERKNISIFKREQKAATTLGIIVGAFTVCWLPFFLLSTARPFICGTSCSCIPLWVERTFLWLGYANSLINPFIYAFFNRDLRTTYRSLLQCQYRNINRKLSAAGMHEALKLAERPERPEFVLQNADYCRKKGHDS
Method: as §1

D2L = D2L (Homo sapiens, UniProt P14416); assay: Radioligand binding, cell membranes; conditions: for pKi D2L: [^3H]spiperone, mean of n independent experiments
Sequence of D2L (P14416 whole entry): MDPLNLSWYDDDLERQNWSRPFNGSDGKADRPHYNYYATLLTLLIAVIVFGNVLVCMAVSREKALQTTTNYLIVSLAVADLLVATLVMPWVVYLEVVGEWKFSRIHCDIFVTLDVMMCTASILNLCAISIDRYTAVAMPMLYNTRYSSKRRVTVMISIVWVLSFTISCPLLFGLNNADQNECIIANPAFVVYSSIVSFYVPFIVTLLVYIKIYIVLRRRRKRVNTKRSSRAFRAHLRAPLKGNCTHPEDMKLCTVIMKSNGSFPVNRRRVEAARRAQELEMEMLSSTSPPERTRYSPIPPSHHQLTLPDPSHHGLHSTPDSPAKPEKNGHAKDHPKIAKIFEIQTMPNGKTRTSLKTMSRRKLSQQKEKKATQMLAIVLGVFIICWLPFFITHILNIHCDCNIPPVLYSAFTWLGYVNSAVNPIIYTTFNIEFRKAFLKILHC
Method: as §1

D3 = D3 (Homo sapiens, UniProt P35462); assay: Radioligand binding, cell membranes
Sequence of D3 (P35462 whole entry): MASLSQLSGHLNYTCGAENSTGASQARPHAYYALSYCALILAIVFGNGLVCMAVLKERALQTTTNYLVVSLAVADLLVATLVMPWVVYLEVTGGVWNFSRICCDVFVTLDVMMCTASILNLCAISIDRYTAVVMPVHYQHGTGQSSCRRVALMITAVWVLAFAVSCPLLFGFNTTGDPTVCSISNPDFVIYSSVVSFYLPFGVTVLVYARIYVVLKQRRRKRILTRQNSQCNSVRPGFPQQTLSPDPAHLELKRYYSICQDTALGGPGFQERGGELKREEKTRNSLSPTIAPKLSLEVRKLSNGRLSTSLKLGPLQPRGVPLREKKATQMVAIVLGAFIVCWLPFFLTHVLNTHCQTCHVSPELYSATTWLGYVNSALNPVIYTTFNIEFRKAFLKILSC
Method: as §1

human wild-type H1R = human wild-type H1R (Homo sapiens, UniProt P35367); assay: IP-One HTRF IP1 accumulation assay; conditions: competitive antagonism of histamine-stimulated IP1 accumulation (10 μM histamine)
Sequence of human wild-type H1R (P35367 whole entry): as the sequence (P35367 whole entry) above

male C57BL/6J mice [4] = assay: Locomotor activity, compound alone (open field); assay type: in vivo; conditions: 3 mg*kg^−1 s.c. (FIG. 3C)
α1B-adrenergic receptor [5] = target: T3, α1B-adrenergic receptor; assay: biochemical
α1A-adrenergic receptor [6] = target: T10, α1A-adrenergic receptor; assay: biochemical
5-HT2BR [7] = target: T12, 5-HT2BR (Homo sapiens, UniProt P41595); assay: Radioligand binding (competitive displacement and saturation), cell membranes; conditions: pKi at the 5-HT2BR, single experiment excluded from the reported data, excluded: excessive or incomplete radioligand displacement
T12 sequence (P41595 whole entry): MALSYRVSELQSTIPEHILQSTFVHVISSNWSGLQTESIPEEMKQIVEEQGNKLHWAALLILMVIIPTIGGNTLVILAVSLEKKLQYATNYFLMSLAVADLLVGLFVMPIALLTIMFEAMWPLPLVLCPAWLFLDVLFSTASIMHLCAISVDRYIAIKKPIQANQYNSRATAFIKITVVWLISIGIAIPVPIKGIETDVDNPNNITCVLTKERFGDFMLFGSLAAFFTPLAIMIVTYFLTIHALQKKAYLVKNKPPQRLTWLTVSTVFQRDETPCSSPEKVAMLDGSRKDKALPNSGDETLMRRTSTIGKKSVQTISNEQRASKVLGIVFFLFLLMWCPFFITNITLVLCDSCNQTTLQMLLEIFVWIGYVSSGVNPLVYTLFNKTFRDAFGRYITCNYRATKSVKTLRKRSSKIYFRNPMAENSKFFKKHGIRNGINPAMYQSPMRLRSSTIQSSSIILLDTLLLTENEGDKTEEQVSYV

5-HT2BR [8] = target: T12, 5-HT2BR
human wild-type 5-HT2B = human wild-type 5-HT2B (Homo sapiens, UniProt P41595); assay: IP-One HTRF IP1 accumulation assay
Sequence of human wild-type 5-HT2B (P41595 whole entry): as above

male C57BL/6J mice [9] = assay: Locomotor activity after (±)-DOI (open field); conditions: pretreatment 0.3 mg*kg^−1 s.c., compared to saline pretreatment (FIG. 3B)
D231F^5.35 5-HT2AR = D231F^5.35 5-HT2AR (Homo sapiens, UniProt P28223, D231F); assay: Exploratory saturation radioligand binding at point-mutated 5-HT2AR; conditions: membranes of transfected HEK293 cells (FIGS. 14A-14D)
Sequence of D231F^5.35 5-HT2AR (P28223 whole entry D231F): as the sequence (P28223 whole entry C322K) above, with D231F, K322C counted along it

W158I^4.56 H1R [10] = target: T13, W158I^4.56 H1R (Homo sapiens, UniProt P35367, W158I)
T13 sequence (P35367 whole entry W158I): as the sequence (P35367 whole entry) above, with W158I counted along it

W158I^4.56 H1R [11] = target: T13, W158I^4.56 H1R; remark: listed apart in the source

T1 sequence (P28223 whole entry): as the sequence (P28223 whole entry) above

CN(C)[C@@H]1Cc2ccccc2[C@H](c2cccc(-c3cccc(F)c3)c2)C1 (single isomer, unassigned) [(2R,4R)-3h, Cis-4-(3′-fluoro-[1,1′-biphenyl]-3-yl)-N,N-dimethyl-1,2,3,4-tetrahydronaphthalen-2-amine]
pKi 5-HT2AR (5-HT2AR): 9.46 ± 0.34
pKi H1R (H1R): 7.31 ^(2) 7.39-7.23 8.96^(3) 9.11-8.88 6.20^(2) 6.23-6.18 6.30 ± 0.10^(5) 6.42-6.14
pKb Wild type 5-HT2AR (human wild-type 5-HT2A): 6.97 ± 0.37
Ki (α1B-adrenergic receptor [1]): 794 nM
inverse agonist efficacy at C322K^6.34 5-HT2ARs (reduction of basal IP1 accumulation) (C322K^6.34 5-HT2AR): ~60%
pIC50 inverse agonism at C322K^6.34 5-HT2ARs (C322K^6.34 5-HT2AR): 6.81±0.39
pKb G238S^5.42 5-HT2AR (G238S^5.42 5-HT2AR): 4.59 ± 0.48
pKb I210V^4.60 5-HT2AR (I210V^4.60 5-HT2AR): 7.18 ± 0.22
pKb S242A^5.46 5-HT2AR (S242A^5.46 5-HT2AR): 6.85 ± 0.36
pKb V235M^5.39 5-HT2AR (V235M^5.39 5-HT2AR): 7.02 ± 0.26
pKb F213K^4.63 5-HT2AR (F213K^4.63 5-HT2AR): 7.04 ± 0.17
head twitch response elicited by (±)-DOI (male C57BL/6J mice [2]): significantly attenuated the head twitch response
Ki (α1A-adrenergic receptor [3]): 741 nM
inverse agonist efficacy (Imax) at 5-HT2CRs (human wild-type 5-HT2C): exhibits inverse agonism
pKi 5-HT1A (5-HT1A): <5.0^(3)
pKi 5-HT7 (5-HT7): 6.29^(4)
pKi D2L (D2L): <5.0^(3)
pKi D3 (D3): 6.21 ^(3)
pKb at H1Rs (human wild-type H1R): 5.82±0.22
locomotor activity, compound administered alone (male C57BL/6J mice [4]): preserving general locomotor ability

CN(C)[C@@H]1Cc2ccccc2[C@@H](c2cccc(Br)c2)C1 (single isomer, unassigned) [(2S,4R)-2a, Trans-4-(3-bromophenyl)-N, N-dimethyl-1,2,3,4-tetrahydronaphthalen-2-amine]
Ki (α1B-adrenergic receptor [5]): 3240 nM
inverse agonist efficacy at C322K^6.34 5-HT2ARs (reduction of basal IP1 accumulation) (C322K^6.34 5-HT2AR; below basal): ~50%
Ki (α1A-adrenergic receptor [6]): 10.2 nM
Ki (5-HT1A; read-out: pKi 5-HT1A (converted)): > 10000 nM
Ki (5-HT7; read-out: pKi 5-HT7 (converted)): 41.7 nM
Ki (D2L; read-out: pKi D2L (converted)): 69.2 nM
Ki (D3; read-out: pKi D3 (converted)): 120 nM

CN(C)c1ccc(-c2cccc([C@H]3C[C@H](N(C)C)Cc4ccccc43)c2)cc1 [(2S,4R)-2k, Trans-4-(4′-(dimethylamino)-[1,1′-biphenyl]-3-yl)-N,N-dimethyl-1,2,3,4-tetra-hydronaph-thalen-2-amine]
Ki (5-HT2BR [7]): 47.9 nM
Ki (5-HT2BR [8]): 79.4 nM
Ki (α1B-adrenergic receptor [1]): 646 nM
inverse agonist efficacy at C322K^6.34 5-HT2ARs (reduction of basal IP1 accumulation) (C322K^6.34 5-HT2AR): ~60%
head twitch response elicited by (±)-DOI (male C57BL/6J mice [2]): significantly attenuated the head twitch response
pKb at 5-HT2BRs (human wild-type 5-HT2B): 5.59±0.50
partial agonist efficacy at 5-HT2BRs, exploratory screening (human wild-type 5-HT2B; 10 μM ligand, change from basal IP1 normalized to 5-HT (FIG. 2A)): ~13 % 5-HT
agonist activity at 5-HT2BRs, full concentration-response (human wild-type 5-HT2B; FIG. 7A): did not reach statistical significance
Ki (α1A-adrenergic receptor [3]): 617 nM
inverse agonist efficacy (Imax) at 5-HT2CRs (human wild-type 5-HT2C): ~75%
pKi 5-HT1A (5-HT1A): 5.58^(3)
pKi 5-HT7 (5-HT7): 6.28^(3)
pKi D2L (D2L): 5.70^(3)
pKi D3 (D3): 6.92^(3)
locomotor activity, compound administered alone (male C57BL/6J mice [4]): preserving general locomotor ability

CC(C)COc1ccc(CNC(=O)N(Cc2ccc(F)cc2)C2CCN(C)CC2)cc1 [PIMA, pimavanserin, reference compound]
pKi H1R (H1R; displacement of [^3H]mepyramine, mean of n independent experiments, ± SD where n ≥ 5): 5.50^(2)
Ki (5-HT2BR [8]): 437 nM
attenuation of head twitch response compared with the same dose of (2S,4R)-2k (male C57BL/6J mice [2]; 0.3 mg*kg^−1 s.c.): significantly more effective
head twitch response elicited by (±)-DOI (male C57BL/6J mice [2]): significantly attenuated the head twitch response
Kb (human wild-type 5-HT2B): 1380 nM
locomotor activity (distance traveled) of mice given 1 mg*kg^−1 DOI (male C57BL/6J mice [9]): locomotor suppression
pKb at H1Rs (human wild-type H1R): little, if any, antagonism
locomotor activity, compound administered alone (male C57BL/6J mice [4]): suppresses locomotor activity

[3H]C([3H])(N1CCC(C(=O)c2ccc(F)cc2)CC1)C([3H])([3H])n1c(=O)[nH]c2ccccc2c1=O [[^3H]Ketanserin]
specific binding to D231F^5.35 5-HT2ARs (D231F^5.35 5-HT2AR): no specific binding is detected
specific binding to W158I^4.56 H1Rs (W158I^4.56 H1R [10]): cannot be detected

NCCc1c[nH]cn1 [histamine]
IP1 accumulation at W158I^4.56 H1Rs in response to histamine (W158I^4.56 H1R [11]): unable to stimulate IP1 accumulation
